Results as given in ChEMBL document CHEMBL4118101 (Bioorg Med Chem, 2018).
Converted amounts (≈) assume the structure as drawn. The source made the active and inactive calls. The calls are words filed in the database; no cut-off is given here.

Experiments:
Cryptococcus neoformans [1] = test: Antifungal activity against Cryptococcus neoformans isolate CN2 measured after 48 hrs by CLSI M27-A3 protocol based method; type: functional; settings: Cryptococcus neoformans, isolate CN2, 48 h; read-out: MIC
Cryptococcus neoformans [2] = test: Antifungal activity against Cryptococcus neoformans isolate CN1 measured after 48 hrs by CLSI M27-A3 protocol based method; type: functional; settings: isolate CN1, 48 h
Candida parapsilosis [3] = test: Antifungal activity against Candida parapsilosis ATCC 22019 measured after 48 hrs in presence of 10% FBS by CLSI M27-A3 protocol based method; type: functional; settings: Lodderomyces parapsilosis, ATCC 22019, 48 h
Candida albicans [4] = test: Antifungal activity against Candida albicans ATCC 10231 measured after 48 hrs in presence of 10% FBS by CLSI M27-A3 protocol based method; type: functional; settings: Candida albicans, ATCC 10231, 48 h
Candida albicans [5] = test: Induction of membrane permeabilization in Candida albicans ATCC 10231 assessed as membrane disruption at 4 times MIC after 1 hr by propidium iodide staining based fluorescence microscopy; type: functional, organism-based
Aspergillus flavus = test: Antifungal activity against Aspergillus flavus ATCC MYA-3631 measured after 48 hrs by CLSI M38-A2 protocol based method; type: functional; settings: ATCC MYA-3631, 48 h
Candida albicans [6] = test: Antifungal activity against fluconazole/ITC-resistant Candida albicans ATCC 90819 measured after 48 hrs by CLSI M27-A3 protocol based method; type: functional; settings: Candida albicans, ATCC 90819, 48 h; read-out: MIC
[7] = Hemolytic activity in mouse RBC at 7.8 ug/ml after 1 hr relative to control; type: ADME, cell-based, Erythrocyte; settings: mouse red blood cells (erythrocytes), read-out: Activity
[8] = Hemolytic activity in mouse RBC at […] ug/ml after 1 hr relative to control; type: ADME, cell-based, Erythrocyte; settings: mouse red blood cells (erythrocytes), read-out: Activity
[9] = Hemolytic activity in mouse RBC at 0.48 ug/ml after 1 hr relative to control; type: ADME, cell-based, Erythrocyte; settings: mouse red blood cells (erythrocytes), read-out: Activity
Nakaseomyces glabratus [10] = test: Antifungal activity against Candida glabrata isolate CG3 measured after 48 hrs by CLSI M27-A3 protocol based method; type: functional; settings: Nakaseomyces glabratus, 48 h; read-out: MIC
Candida parapsilosis [11] = test: Antifungal activity against Candida parapsilosis isolate CP1 measured after 48 hrs by CLSI M27-A3 protocol based method; type: functional; settings: Lodderomyces parapsilosis, isolate CP1, 48 h
[12] = Hemolytic activity in mouse RBC at 62.5 ug/ml after 1 hr relative to control; type: ADME, cell-based, Erythrocyte; settings: mouse red blood cells (erythrocytes), read-out: Activity
Candida parapsilosis [13] = test: Antifungal activity against Candida parapsilosis isolate CP3 measured after 48 hrs by CLSI M27-A3 protocol based method; type: functional; settings: Lodderomyces parapsilosis, isolate CP3, 48 h
Candida albicans [14] = test: Antifungal activity against fluconazole/ITC-susceptible Candida albicans ATCC MYA-2876 measured after 48 hrs by CLSI M27-A3 protocol based method; type: functional; settings: Candida albicans, ATCC MYA-2876, 48 h
Aspergillus nidulans [15] = test: Antifungal activity against Aspergillus nidulans ATCC 38163 measured after 48 hrs by CLSI M38-A2 protocol based method; type: functional; settings: ATCC 38163, 48 h
[16] = Hemolytic activity in mouse RBC at 31.3 ug/ml after 1 hr relative to control; type: ADME, cell-based, Erythrocyte; settings: mouse red blood cells (erythrocytes), at 31.3 µg/mL, read-out: Activity
Pichia kudriavzevii = test: Antifungal activity against Candida krusei ATCC 6258 measured after 48 hrs by CLSI M27-A3 protocol based method; type: functional; settings: Pichia kudriavzevii, ATCC 6258, 48 h
Candida albicans [17] = test: Antifungal activity against Candida albicans ATCC 64124 measured after 48 hrs by CLSI M27-A3 protocol based method; type: functional; settings: Candida albicans, ATCC 64124, 48 h; read-out: MIC
[18] = Hemolytic activity in mouse RBC at 1.95 ug/ml after 1 hr relative to control; type: ADME, cell-based, Erythrocyte; settings: mouse red blood cells (erythrocytes), at 1.95 µg/mL, read-out: Activity
Cryptococcus neoformans [19] = test: Antifungal activity against Cryptococcus neoformans isolate CN3 measured after 48 hrs by CLSI M27-A3 protocol based method; type: functional; settings: Cryptococcus neoformans, isolate CN3, 48 h; read-out: MIC
Candida albicans [20] = test: Antifungal activity against fluconazole/ITC-resistant Candida albicans ATCC MYA-1237 measured after 48 hrs by CLSI M27-A3 protocol based method; type: functional; settings: Candida albicans, ATCC MYA-1237, 48 h; read-out: MIC
Nakaseomyces glabratus [21] = test: Antifungal activity against Candida glabrata isolate CG1 measured after 48 hrs by CLSI M27-A3 protocol based method; type: functional; settings: Nakaseomyces glabratus, 48 h; read-out: MIC
Candida parapsilosis [22] = test: Fungistatic activity against Candida parapsilosis ATCC 22019 up to 4 times MIC incubated for 24 hrs by time kill assay; type: functional, organism-based
Candida albicans [23] = test: Antifungal activity against Candida albicans ATCC 10231 measured after 48 hrs by CLSI M27-A3 protocol based method; type: functional; settings: ATCC 10231, 48 h
Candida albicans [24] = test: Antifungal activity against fluconazole/ITC-susceptible Candida albicans ATCC MYA-2310 measured after 48 hrs by CLSI M27-A3 protocol based method; type: functional; settings: Candida albicans, ATCC MYA-2310, 48 h; read-out: MIC
Nakaseomyces glabratus [25] = test: Antifungal activity against Candida glabrata ATCC 2001 measured after 48 hrs by CLSI M27-A3 protocol based method; type: functional, CBS 138; settings: Nakaseomyces glabratus, CBS 138, 48 h; read-out: MIC
HEK293 = test: Cytotoxicity against HEK293 cells at 7.8 ug/ml after 24 hrs by resazurin based assay; type: cell-based; settings: human, hek293, 24 h
Nakaseomyces glabratus [26] = test: Antifungal activity against Candida glabrata isolate CG2 measured after 48 hrs by CLSI M27-A3 protocol based method; type: functional; settings: Nakaseomyces glabratus, isolate CG2, 48 h; read-out: MIC
Aspergillus nidulans [27] = test: Antifungal activity against Aspergillus nidulans ATCC 38163 measured after 48 hrs in presence of 10% FBS by CLSI M38-A2 protocol based method; type: functional; settings: ATCC 38163, 48 h
[28] = Hemolytic activity in mouse RBC at 3.9 ug/ml after 1 hr relative to control; type: ADME, cell-based, Erythrocyte; settings: mouse red blood cells (erythrocytes), read-out: Activity
Candida albicans [29] = test: Antifungal activity against fluconazole/ITC-resistant Candida albicans ATCC MYA-1003 measured after 48 hrs by CLSI M27-A3 protocol based method; type: functional; settings: Candida albicans, ATCC MYA-1003, 48 h; read-out: MIC
Candida parapsilosis [30] = test: Antifungal activity against Candida parapsilosis isolate CP2 measured after 48 hrs by CLSI M27-A3 protocol based method; type: functional; settings: Lodderomyces parapsilosis, isolate CP2, 48 h
Candida parapsilosis [31] = test: Antifungal activity against Candida parapsilosis ATCC 22019 measured after 48 hrs by CLSI M27-A3 protocol based method; type: functional; settings: Lodderomyces parapsilosis, ATCC 22019, 48 h
Aspergillus terreus = test: Antifungal activity against Aspergillus terreus ATCC MYA-3633 measured after 48 hrs by CLSI M38-A2 protocol based method; type: functional; settings: ATCC MYA-3633, 48 h
Candida albicans [32] = test: Fungistatic activity against Candida albicans ATCC 10231 at 4 times MIC incubated for 24 hrs by time kill assay; type: functional, organism-based
BEAS-2B = test: Cytotoxicity against human BEAS2B cells up to 7.8 ug/ml after 24 hrs by resazurin based assay; type: cell-based
A549 = test: Cytotoxicity against human A549 cells up to 7.8 ug/ml after 24 hrs by resazurin based assay; type: cell-based; settings: a549, 24 h

Structure (SMILES)	MIC (Cryptococcus neoformans [1])	MIC (Cryptococcus neoformans [2])	MIC (Aspergillus flavus)	MIC (Candida albicans [6])	hemolysis at 1 h, 7.8 ug/ml [7]	hemolysis at 1 h, 0.975 ug/ml [8]	hemolysis at 1 h, 15.6 ug/ml [8]	hemolysis at 1 h, 0.48 ug/ml [9]	MIC (Nakaseomyces glabratus [10])	MIC (Candida parapsilosis [11])	hemolysis at 1 h, 62.5 ug/ml [12]	MIC (Candida parapsilosis [13])	MIC (Candida albicans [14])	MIC (Aspergillus nidulans [15])	hemolysis at 1 h, 31.3 ug/ml [16]	MIC (Pichia kudriavzevii)	MIC (Candida albicans [17])	hemolysis at 1 h, 1.95 ug/ml [18]	MIC (Cryptococcus neoformans [19])	MIC (Candida albicans [20])	other results
CCCCCCCCCCNCC(O)(Cn1cncn1)c1ccc(F)cc1F (stereo not given)	0.61 µM (≈ 0.241 µg/mL)	0.61 µM (≈ 0.241 µg/mL)	19.8 µM (≈ 7.81 µg/mL)	9.9 µM (≈ 3.91 µg/mL)	8%	0%	33%	0%	9.9 µM (≈ 3.91 µg/mL)	0.15 µM (≈ 0.0592 µg/mL)	100%	0.61 µM (≈ 0.241 µg/mL)	9.9 µM (≈ 3.91 µg/mL)	2.5 µM (≈ 0.986 µg/mL)	92%	1.2 µM (≈ 0.473 µg/mL)	39.5 µM (≈ 15.6 µg/mL)	2%	1.2 µM (≈ 0.473 µg/mL)	19.8 µM (≈ 7.81 µg/mL)	MIC (Candida parapsilosis [3]): 0.06 µg/mL; MIC (Candida albicans [4]): 0.48 µg/mL; Activity (Candida albicans [5]): inactive; MIC (Nakaseomyces glabratus [21]): 4.9 µM (≈ 1.93 µg/mL); Activity (Candida parapsilosis [22]): Active; MIC (Candida albicans [23]): 1.2 µM (≈ 0.473 µg/mL); MIC (Candida albicans [24]): 19.8 µM (≈ 7.81 µg/mL); MIC (Nakaseomyces glabratus [25]): 1.2 to 2.5 µM (≈ 0.473 to 0.986 µg/mL); Activity (HEK293): Non-Toxic; MIC (Nakaseomyces glabratus [26]): 1.2 µM (≈ 0.473 µg/mL); MIC (Aspergillus nidulans [27]): 1.95 µg/mL; hemolysis at 1 h, 3.9 ug/ml [28]: 3%; MIC (Candida albicans [29]): 19.8 µM (≈ 7.81 µg/mL); MIC (Candida parapsilosis [30]): 0.3 µM (≈ 0.118 µg/mL); MIC (Candida parapsilosis [31]): 0.08 µM (≈ 0.0316 µg/mL); MIC (Aspergillus terreus): 9.9 µM (≈ 3.91 µg/mL); Activity (Candida albicans [32]): Active
CCCCCCCCCCCCCCCCNCC(O)(Cn1cncn1)c1ccc(F)cc1F (stereo not given)	1 µM (≈ 0.479 µg/mL)	1 µM (≈ 0.479 µg/mL)	> 65.4 µM	65.4 µM (≈ 31.3 µg/mL)	4%	5%	4%	4%	16.3 µM (≈ 7.8 µg/mL)	2 µM (≈ 0.957 µg/mL)	8%	2 µM (≈ 0.957 µg/mL)	65.4 µM (≈ 31.3 µg/mL)	8.1 µM (≈ 3.88 µg/mL)	4%	8.1 µM (≈ 3.88 µg/mL)	> 65.4 µM	6%	1 µM (≈ 0.479 µg/mL)	> 65.4 µM	Activity (BEAS-2B): Non-Toxic; Activity (A549): Non-Toxic; MIC (Nakaseomyces glabratus [21]): 4.1 µM (≈ 1.96 µg/mL); MIC (Candida albicans [23]): > 65.4 µM; MIC (Candida albicans [24]): 8.1 to 65.4 µM (≈ 3.88 to 31.3 µg/mL); MIC (Nakaseomyces glabratus [25]): 2 to 65.4 µM (≈ 0.957 to 31.3 µg/mL); Activity (HEK293): Non-Toxic; MIC (Nakaseomyces glabratus [26]): 2 µM (≈ 0.957 µg/mL); hemolysis at 1 h, 3.9 ug/ml [28]: 3%; MIC (Candida albicans [29]): > 65.4 µM; MIC (Candida parapsilosis [30]): 1 µM (≈ 0.479 µg/mL); MIC (Candida parapsilosis [31]): 1 µM (≈ 0.479 µg/mL); MIC (Aspergillus terreus): > 65.4 µM
